Where two headings read alike, the source gives them in different places.
What was measured:
[1] = test system: Cabbage Looper (Trichoplusia ni) ("CL"), second instar larvae; test: Bioassay on cabbage looper (CL), 128-well diet tray assay; type: in vivo; settings: for CL rating: C = not tested, D = no activity noticed
Outline: (§1)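 Covered trays were held at 25° C. under a 14:10 light-dark cycle for five to seven days. Percent mortality was then scored in each well, and activity across eight wells was averaged.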

[2] = test system: Beet Armyworm (Spodoptera exigua) ("BAW"), second instar larvae; test: Bioassay on beet armyworm (BAW), 128-well diet tray assay; type: in vivo; settings: for BAW rating: C = not tested, D = no activity noticed; for pest or weed control at 50 µg/cm2: Spodoptera exigua
Outline: as §1

[3] = Trichoplusia ni, read-out: CL rating
[4] = Trichoplusia ni, read-out: CL (Biological Results, rating)
[5] = read-out: BAW (Biological Results, rating)

Compound	pest or weed control at 50 µg/cm2 [1, 3] [%]	pest or weed control at 50 µg/cm2 ([2]; read-out: BAW rating) [%]	pest or weed control at 50 µg/cm2 [1, 4] [%]	pest or weed control at 50 µg/cm2 [2, 5] [%]	further results
Cc1ccc(COCC(Cl)(Cl)Cl)c(N2C(=O)CS/C2=N\C(=O)Nc2ccc(-c3ncn(-c4ccc(S(F)(F)(F)(F)F)cc4)n3)cc2F)c1 [Compound J453]	–	–	–	–	CL rating ([1]; Table ABC, species CL): A (50-100); BAW rating ([2]; Table ABC, species BAW): A (50-100)
CCCc1ccc(C)cc1N1C(=O)CS/C1=N\C(=O)Nc1ccc(-c2nnc(-c3ccc(OC(F)(F)F)cc3)o2)cc1F [Compound J608, (Z)-1-(2-Fluoro-4-(5-(4-(trifluoromethoxy)phenyl)-1,3,4-oxadiazol-2-yl)phenyl)-3-(3-(5-methyl-2-propylphenyl)-4-oxothiazolidin-2-ylidene)urea]	50 to 100	50 to 100	–	–	–
CCOc1ccc(C)cc1N1C(=O)CS/C1=N\C(=O)Nc1ccc(-c2ncn(-c3ccc(OC(F)(F)F)cc3)n2)cc1F [Compound J59, (Z)-1-(3-(2-Ethoxy-5-methylphenyl)-4-oxothiazolidin-2-ylidene)-3-(2-fluoro-4-(1-(4-(trifluoromethoxy)phenyl)-1H-1,2,4-triazol-3-yl)phenyl)urea]	–	–	50 to 100	50 to 100	–
COc1ccc(-n2cnc(-c3ccc(NC(=O)/N=C4\SCC(=O)N4c4cc(C)ccc4OCCC(F)(F)F)c(F)c3)n2)cc1 [Compound J147, (Z)-1-(2-Fluoro-4-(1-(4-methoxyphenyl)-1H-1,2,4-triazol-3-yl)phenyl)-3-(3-(5-methyl-2-(3,3,3-trifluoropropoxy)phenyl)-4-oxothiazolidin-2-ylidene)urea]	–	–	50 to 100	50 to 100	–
CCCc1ccc(C)cc1N1C(=O)CS/C1=N\C(=O)Nc1ccc(-c2ncn(-c3ccc(OC(F)(F)F)cc3)n2)cc1C#N [Compound J248, (Z)-1-(2-Cyano-4-(1-(4-(trifluoromethoxy)phenyl)-1H-1,2,4-triazol-3-yl)phenyl)-3-(3-(5-methyl-2-propylphenyl)-4-oxothiazolidin-2-ylidene)urea]	–	–	50 to 100	50 to 100	–
CCOCc1ccc(C)cc1N1C(=O)CS/C1=N\C(=O)Nc1ccc(-c2ncn(-c3cc(C(F)(F)F)cc(C(F)(F)F)c3)n2)cc1F [Compound J761]	–	–	–	–	CL rating ([1]; Table ABC, species CL): A (50-100); BAW rating ([2]; Table ABC, species BAW): A (50-100)
Cc1ccc(COCC(F)(F)F)c(N2C(=O)C(CO)(CO)S/C2=N\C(=O)Nc2ccc(-c3ncn(-c4ccc(OC(F)(F)F)cc4)n3)cc2F)c1 [Compound J778, (Z)-1-(5,5-Bis(hydroxymethyl)-3-(5-methyl-2-((2,2,2-trifluoroethoxy)methyl)phenyl)-4-oxothiazolidin-2-ylidene)-3-(2-fluoro-4-(1-(4-(trifluoromethoxy)phenyl)-1H-1,2,4-triazol-3-yl)phenyl)urea]	50 to 100	50 to 100	–	–	–
Cc1ccc(COCCF)c(N2C(=O)CS/C2=N\C(=O)Nc2ccc(-c3ncn(-c4ccc(OC(F)(F)F)cc4)n3)cc2C)c1 [Compound J558]	–	–	–	–	CL rating ([1]; Table ABC, species CL): A (50-100); BAW rating ([2]; Table ABC, species BAW): A (50-100)
Cc1ccc(OCCC(F)(F)F)c(N2C(=O)CS/C2=N\C(=O)Nc2ccc(-c3ncn(-c4ccc(C(F)(F)F)cn4)n3)cc2F)c1 [Compound J307, (Z)-1-(2-Fluoro-4-(1-(5-(trifluoromethyl)pyridin-2-yl)-1H-1,2,4-triazol-3-yl)phenyl)-3-(3-(5-methyl-2-(3,3,3-trifluoropropoxy)phenyl)-4-oxothiazolidin-2-ylidene)urea]	–	–	50 to 100	50 to 100	–
Cc1ccc(OCCC(F)(F)F)c(N2C(=O)CS/C2=N\C(=O)Nc2ccc(-c3ncn(-c4ccc(OC(F)(F)F)cn4)n3)cc2F)c1 [Compound J257, (Z)-1-(2-Fluoro-4-(1-(5-(trifluoromethoxy)pyridin-2-yl)-1H-1,2,4-triazol-3-yl)phenyl)-3-(3-(5-methyl-2-(3,3,3-trifluoropropoxy)phenyl)-4-oxothiazolidin-2-ylidene)urea]	–	–	50 to 100	50 to 100	–
Cc1ccc(CC(F)(F)F)c(N2C(=O)CS/C2=N\C(=O)NCC(F)c2ccc(-c3ncn(-c4ccc(OC(F)(F)F)cc4)n3)cc2)c1 (centres unmarked) [Compound H13]	–	–	50 to 100	50 to 100	–
Cc1ccc(COCCF)c(N2C(=O)CS/C2=N\C(=O)Nc2ccc(-c3ncn(-c4ccc(S(F)(F)(F)(F)F)cc4)n3)cc2F)c1 [Compound J552]	50 to 100	50 to 100	–	–	–
Cc1ccc(OCCC(F)(F)F)c(N2C(=O)CS/C2=N\C(=O)Nc2ccc(-c3ncn(-c4ccc(S(=O)(=O)C(F)(F)F)cc4)n3)cc2F)c1 [Compound J369, (Z)-1-(2-Fluoro-4-(1-(4-((trifluoromethyl)sulfonyl)phenyl)-1H-1,2,4-triazol-3-yl)phenyl)-3-(3-(5-methyl-2-(3,3,3-trifluoropropoxy)phenyl)-4-oxothiazolidin-2-ylidene)urea]	50 to 100	50 to 100	–	–	–
COC(C)c1ccc(C)cc1N1C(=O)CS/C1=N\C(=O)Nc1ccc(-c2ncn(-c3ccc(OC(F)(F)F)cc3)n2)cc1F (centres unmarked) [Compound J49, (Z)-1-(2-Fluoro-4-(1-(4-(trifluoromethoxy)phenyl)-1H-1,2,4-triazol-3-yl)phenyl)-3-(3-(2-(1-methoxyethyl)-5-methylphenyl)-4-oxothiazolidin-2-ylidene)urea]	–	–	50 to 100	50 to 100	–
CC(=O)c1cc(-c2ncn(-c3ccc(OC(F)(F)F)cc3)n2)ccc1NC(=O)/N=C1\SCC(=O)N1c1cc(C)ccc1OCCC(F)(F)F [Compound J399, (Z)-1-(2-Acetyl-4-(1-(4-(trifluoromethoxy)phenyl)-1H-1,2,4-triazol-3-yl)phenyl)-3-(3-(5-methyl-2-(3,3,3-trifluoropropoxy)phenyl)-4-oxothiazolidin-2-ylidene)urea]	50 to 100	50 to 100	–	–	–
Cc1ccc(C(C)C)c(N2C(=O)CS/C2=N\C(=O)Nc2ccc(-c3ncn(-c4ccc(OC(F)(F)F)cn4)n3)cc2C(F)(F)F)c1 [Compound J260, (Z)-1-(3-(2-Isopropyl-5-methylphenyl)-4-oxothiazolidin-2-ylidene)-3-(4-(1-(5-(trifluoromethoxy)pyridin-2-yl)-1H-1,2,4-triazol-3-yl)-2-(trifluoromethyl)phenyl)urea]	–	–	50 to 100	50 to 100	–
Cc1ccc(COCC(F)(F)F)c(N2C(=O)CS/C2=N\C(=O)Nc2ccc(-c3ncn(-c4ccc(C(F)(F)F)cc4)n3)cc2F)c1C [Compound J680]	–	–	–	–	CL rating ([1]; Table ABC, species CL): A (50-100); BAW rating ([2]; Table ABC, species BAW): A (50-100)
Cc1ccc(C(C)C)c(N2C(=O)CS/C2=N\C(=O)Nc2ccc(-c3cn(-c4ccc(C(F)(F)F)cn4)cn3)cc2)c1 [Compound J519, (Z)-1-(3-(2-Isopropyl-5-methylphenyl)-4-oxothiazolidin-2-ylidene)-3-(4-(1-(5-(trifluoromethyl)pyridin-2-yl)-1H-imidazol-4-yl)phenyl)urea]	50 to 100	50 to 100	–	–	–
Cc1ccc(OCC(F)(F)F)c(N2C(=O)CS/C2=N\C(=O)Nc2ccc(-c3ncn(-c4ccc(OC(F)(F)F)cc4)n3)cc2C(F)(F)F)c1 [Compound J115, (Z)-1-(3-(5-Methyl-2-(2,2,2-trifluoroethoxy)phenyl)-4-oxothiazolidin-2-ylidene)-3-(4-(1-(4-(trifluoromethoxy)phenyl)-1H-1,2,4-triazol-3-yl)-2-(trifluoromethyl)phenyl)urea]	–	–	50 to 100	50 to 100	–
COc1ccc(COCC(F)(F)F)c(N2C(=O)CS/C2=N\C(=O)Nc2ccc(-c3ncn(-c4ccc(C(F)(F)F)cc4)n3)cc2C)c1 [Compound J580]	–	–	–	–	CL rating ([1]; Table ABC, species CL): A (50-100); BAW rating ([2]; Table ABC, species BAW): A (50-100)
COC(c1ccc(C)cc1N1C(=O)CS/C1=N\C(=O)Nc1ccc(-c2cn(-c3ccc(S(F)(F)(F)(F)F)cc3)cn2)cc1F)C(F)(F)F (centres unmarked) [Compound J599, (Z)-1-(2-Fluoro-4-(1-(4-(pentafluoro-λ^6-sulfaneyl)phenyl)-1H-imidazol-4-yl)phenyl)-3-(3-(5-methyl-2-(2,2,2-trifluoro-1-methoxyethyl)phenyl)-4-oxothiazolidin-2-ylidene)urea]	50 to 100	50 to 100	–	–	–
Cc1ccc(COCCF)c(N2C(=O)CS/C2=N\C(=O)Nc2ccc(-c3ncn(-c4ccc(OC(F)(F)C(F)(F)F)cc4)n3)cc2C)c1 [Compound J801, (Z)-1-(3-(2-((2-Fluoroethoxy)methyl)-5-methylphenyl)-4-oxothiazolidin-2-ylidene)-3-(2-methyl-4-(1-(4-(perfluoroethoxy)phenyl)-1H-1,2,4-triazol-3-yl)phenyl)urea]	–	–	–	–	mortality at 50 µg/cm2 ([1]; Trichoplusia ni, Table ABC, species CL, 128-well diet tray assay, second instar larvae, read-out: CL rating (% control or mortality class)): 50 to 100%; BAW rating (% control or mortality class) ([2]; Table ABC, species BAW, 128-well diet tray assay, second instar larvae): A (50-100)
Cc1ccc(Cc2ccc(F)cc2)c(N2C(=O)CS/C2=N\C(=O)Nc2ccc(-c3ncn(-c4ccc(OC(F)(F)F)cc4)n3)cc2F)c1 [Compound J674, (Z)-1-(2-Fluoro-4-(1-(4-(trifluoromethoxy)phenyl)-1H-1,2,4-triazol-3-yl)phenyl)-3-(3-(2-(4-fluorobenzyl)-5-methylphenyl)-4-oxothiazolidin-2-ylidene)urea]	50 to 100	50 to 100	–	–	–
CC(C)c1cc(F)c(N(C)C)cc1N1C(=O)CS/C1=N\C(=O)Nc1ccc(-c2ncn(-c3ccc(C(F)F)cn3)n2)cc1F [Compound J351]	–	–	–	–	CL (Biological Results, rating) ([1]; Cabbage Looper (Trichoplusia ni), C = Not Tested): A (50-100); BAW (Biological Results, rating) ([2]; Beet Armyworm (Spodoptera exigua), C = Not Tested): A (50-100)
Cc1cccc(N2C(=O)CS/C2=N\C(=O)Nc2ccc(-c3ncn(-c4ccc(C(F)(F)F)cc4)n3)cc2F)c1COCC(F)(F)F [Compound J677]	–	–	–	–	CL rating ([1]; Table ABC, species CL): A (50-100); BAW rating ([2]; Table ABC, species BAW): A (50-100)
